Measurements as given in PubChem BioAssay (NCI).
Where “and” joins values, the source holds several entries; their conditions need not be identical. Equal entries are not always repeated.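 Cultured in 96-well plates, cells were exposed to test compound for 48 hours across five concentrations. Abbreviation: GI50, concentration required for 50% inhibition of growth. TGI is the concentration that stops growth completely.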

How the values were obtained:
Test in all cases: growth of human tumour cells (NCI), 48 h
[1] = system: 786-0 renal
[2] = system: A498 renal
[3] = system: A549 NSCLC
[4] = system: ACHN renal
[5] = system: BT-549 breast
[6] = system: CAKI-1 renal
[7] = system: CCRF-CEM leukemia
[8] = system: COLO 205 colon
[9] = system: DU-145 prostate
[10] = system: EKVX NSCLC
[11] = system: HCC-2998 colon
[12] = system: HCT-116 colon
[13] = system: HCT-15 colon
[14] = system: HL-60(TB) leukemia
[15] = system: HOP-62 NSCLC
[16] = system: HOP-92 NSCLC
[17] = system: HT29 colon
[18] = system: IGROV1 ovarian
[19] = system: K-562 leukemia
[20] = system: KM12 colon
[21] = system: LOX IMVI melanoma
[22] = system: M14 melanoma
[23] = system: MALME-3M melanoma
[24] = system: MCF7 breast
[25] = system: MDA-MB-231 breast
[26] = system: MDA-MB-435
[27] = system: NCI-H226 lung
[28] = system: NCI-H23 lung
[29] = system: NCI-H460 lung
[30] = system: NCI-H522 lung
[31] = system: NCI/ADR-RES ovarian
[32] = system: OVCAR-3 ovarian
[33] = system: OVCAR-4 ovarian
[34] = system: OVCAR-5 ovarian
[35] = system: OVCAR-8 ovarian
[36] = system: PC-3 prostate
[37] = system: RPMI-8226 leukemia
[38] = system: RXF 393 renal
[39] = system: SF-268 CNS
[40] = system: SF-295 CNS
[41] = system: SF-539 CNS
[42] = system: SK-MEL-2 melanoma
[43] = system: SK-MEL-28 melanoma
[44] = system: SK-MEL-5 melanoma
[45] = system: SK-OV-3 ovarian
[46] = system: SN12C renal
[47] = system: SNB-19 CNS
[48] = system: SW-620 colon
[49] = system: T-47D breast
[50] = system: TK-10 renal
[51] = system: U251 CNS
[52] = system: UACC-257 melanoma
[53] = system: UACC-62 melanoma
[54] = system: UO-31 renal
[55] = system: HS 578T breast
[56] = system: SNB-75 CNS

CCCOc1cc2ccccc2cc1C(=O)Nc1nc(N)c2c(ccc3nccc32)[nH]1
GI50 [1]: 50.9 nM | TGI [1]: 1560 nM | GI50 [2]: 31.2 nM | TGI [2]: 622 nM | GI50 [3]: 99.3 nM | TGI [3]: 1860 nM | GI50 [4]: 64.1 nM | TGI [4]: 2560 nM | GI50 [5]: 99.8 nM | TGI [5]: 2110 nM | GI50 [6]: 620 nM | TGI [6]: 3310 nM | GI50 [7]: 42 nM | TGI [7]: 1490 nM | GI50 [8]: 44.5 nM | TGI [8]: 481 nM | GI50 [9]: 48.7 nM | TGI [9]: 1450 nM | GI50 [10]: 398 nM | TGI [10]: 2250 nM | GI50 [11]: 220 nM | TGI [11]: 1860 nM | GI50 [12]: 46.1 nM | TGI [12]: 1220 nM | GI50 [13]: 44.4 nM | TGI [13]: 1310 nM | GI50 [14]: 30.7 nM | TGI [14]: 229 nM | GI50 [15]: 79.8 nM | TGI [15]: 2690 nM | GI50 [16]: 27.9 nM | TGI [16]: 1980 nM | GI50 [17]: 34.1 nM | TGI [17]: 129 nM | GI50 [18]: 519 nM | TGI [18]: 2890 nM | GI50 [19]: 33.9 nM | TGI [19]: 1260 nM | GI50 [20]: 44.8 nM | TGI [20]: 1530 nM | GI50 [21]: 51.1 nM | TGI [21]: 2020 nM | GI50 [22]: 40.5 nM | TGI [22]: 1080 nM | GI50 [23]: 1130 nM | TGI [23]: 2620 nM | GI50 [24]: 45.9 nM | TGI [24]: 1500 nM | GI50 [25]: 1060 nM | TGI [25]: 2850 nM | GI50 [26]: 13.3 nM | TGI [26]: 43.2 nM | GI50 [27]: 1310 nM | TGI [27]: 3320 nM | GI50 [28]: 209 nM | TGI [28]: 2040 nM | GI50 [29]: 41.7 nM | TGI [29]: 1310 nM | GI50 [30]: 18 nM | TGI [30]: 42.6 nM | GI50 [31]: 96.2 nM | TGI [31]: 2240 nM | GI50 [32]: 25.4 nM | TGI [32]: 81.9 nM | GI50 [33]: 1550 nM | TGI [33]: 4370 nM | GI50 [34]: 911 nM | TGI [34]: 2980 nM | GI50 [35]: 203 nM | TGI [35]: 1690 nM | GI50 [36]: 49.2 nM | TGI [36]: 2220 nM | GI50 [37]: 113 nM | TGI [37]: 2150 nM | GI50 [38]: 42.6 nM | TGI [38]: 1160 nM | GI50 [39]: 65.8 nM | TGI [39]: 2860 nM | GI50 [40]: 30.7 nM | TGI [40]: 1260 nM | GI50 [41]: 53.8 nM | TGI [41]: 1040 nM | GI50 [42]: 36.8 nM | TGI [42]: 1320 nM | GI50 [43]: 1010 nM | TGI [43]: 2360 nM | GI50 [44]: 41.3 nM | TGI [44]: 1040 nM | GI50 [45]: 59.1 nM | TGI [45]: 2360 nM | GI50 [46]: 1420 nM | TGI [46]: 3220 nM | GI50 [47]: 65.5 nM | TGI [47]: 2080 nM | GI50 [48]: 37.7 nM | TGI [48]: 1800 nM | GI50 [49]: 499 nM | TGI [49]: 3170 nM | GI50 [50]: 458 nM | TGI [50]: 2060 nM | GI50 [51]: 52.7 nM | TGI [51]: 1400 nM | GI50 [52]: 1210 nM | TGI [52]: 2620 nM | GI50 [53]: 40.3 nM | TGI [53]: 1960 nM | GI50 [54]: 703 nM | TGI [54]: 2400 nM

CCCCCCCCCCCCCCCC[N+](C)(C)Cc1ccccc1
GI50 [1]: 1520 nM | TGI [1]: 2930 nM | GI50 [2]: 1920 nM and 1870 nM | TGI [2]: 6300 nM and 4830 nM | GI50 [4]: 2430 nM and 2360 nM | TGI [4]: 7960 nM and 6530 nM | GI50 [6]: 9520 nM and 3740 nM | TGI [6]: 35600 nM and 21700 nM | GI50 [8]: 1650 nM | TGI [8]: 3240 nM | GI50 [9]: 1700 nM and 1620 nM | TGI [9]: 3220 nM and 3120 nM | GI50 [11]: 923 nM | TGI [11]: 2380 nM | GI50 [13]: 2860 nM and 3240 nM | TGI [13]: 15800 nM and > 30400 nM | GI50 [14]: 859 nM | TGI [14]: 2450 nM | GI50 [55]: 1820 nM | TGI [55]: 4890 nM | GI50 [17]: 1010 nM | TGI [17]: 2360 nM | GI50 [18]: 209 nM | TGI [18]: 533 nM | GI50 [20]: 1130 nM | TGI [20]: 2420 nM | GI50 [22]: 1200 nM | TGI [22]: 2490 nM | GI50 [23]: 1240 nM | TGI [23]: 2720 nM | GI50 [25]: 1380 nM | TGI [25]: 3320 nM | GI50 [26]: 1540 nM | TGI [26]: 2910 nM | GI50 [31]: 14400 nM and 12000 nM | TGI [31]: 45100 nM and 42000 nM | GI50 [32]: 1210 nM | TGI [32]: 2530 nM | GI50 [33]: 1590 nM | TGI [33]: 4550 nM | GI50 [36]: 537 nM | TGI [36]: 2000 nM | GI50 [37]: 51.6 nM | TGI [37]: 239 nM | GI50 [38]: 606 nM and 306 nM | TGI [38]: 1970 nM and 1350 nM | GI50 [40]: 1550 nM | TGI [40]: 3290 nM | GI50 [43]: 1680 nM | TGI [43]: 3190 nM | GI50 [44]: 1330 nM | TGI [44]: 2620 nM | GI50 [45]: 1680 nM | TGI [45]: 3700 nM | GI50 [56]: 1340 nM | TGI [56]: 2760 nM | GI50 [49]: 1310 nM and 1480 nM | TGI [49]: 5620 nM and 6100 nM | GI50 [53]: 1360 nM | TGI [53]: 2980 nM | GI50 [54]: 2980 nM and 2010 nM | TGI [54]: 22800 nM and 8180 nM
